Experimental data: patent US20170190726A9, “PRODRUG FOR RELEASE OF CISPLATIN AND CYCLOOXYGENASE INHIBITOR” (priority 2013, published 2017)

What was measured:
[1] = system: COX-2 expression in PC3 cells; experiment: Immunofluorescence analysis of COX-2 expression in PC3 cells; format: cell-based, Human; conditions: TNF-α 20 ng/mL 2 h, then 1 μM test article 2 h
Protocol: Human TNF-α (20 ng/mL) was then added to the cells and incubated for 2 h. […] The cells were then fixed with a 4% paraformaldehyde solution for 30 min at room temperature. […] The coverslips were washed 3 times with H2O and 3 times with PBS. […] After 5 washes with blocking buffer, the cells were mounted on microscope slides with mounting media (20 mM Tris of pH 8.0, 0.5% N-propyl gallate, and 70% glycerol). Images were collected with 500 ms exposure using DAPI and FITC filters. Relative fluorescence units (RFUs) were also analyzed by a plate reader at an excitation wavelength of 488 nm and an emission of 519 nm.

[2] = system: IL-10; experiment: ELISA of IL-10 in LPS-stimulated RAW 264.7 macrophages; format: cell-based, mouse; conditions: preventive: pretreatment 10 μM 6 h, then LPS 12 h
Description: Chronic inflammation can be important for progression of human cancers, including PCa. Pro-inflammatory cytokines, TNF-α and interleukin (IL)-6, can be important for proliferation, survival, metastasis, and escape from immune surveillance of cancers. Chronic inflammation by activation of toll like receptors (TLRs) on cancer cells creates a tumor micro-environment which impairs the anti-tumor function of the immune system to allow to develop and survive. The cytokines TNF-α and IL-6 are potent activators of NF-κB, a key modulator of inflammation-induced carcinogenesis. Enhanced TNF-α secretion mediates cisplatin nephrotoxicity. The anti-inflammatory cytokine, IL-10 inhibits inflammatory and cytotoxic pathways in cisplatin-induced acute renal injury. […] First, we evaluated the effects of Platin-A, cisplatin, a combination of cisplatin and aspirin, and aspirin on pro-inflammatory cytokines IL-6, TNF-α, and anti-inflammatory IL-10 production in LPS-stimulated RAW 264.7 macrophages. […] To exclude the possibility that the decrease in the cytokines levels was simply due to the cytotoxicity of Platin-A, cell viability was evaluated. […]
RAW 264.7 cells were plated at a concentration of 10,000 cells/mL in 96 plates and allowed to grow overnight. […] The absorbance was recorded at 450 nm using a BioTek Synergy HT well plate reader.

[3] = Cyclic voltammetry; format: physicochemical
Protocol: FIG. 6: Cyclic voltammograms of ‘Platin-A’ in 1:4 dimethyformamide (DMF)-phosphate buffer-0.1 M KCl at two different pH values.
Electrochemical measurements were made at 25° C. on an analytical system model CHI 920c potentiostat from CH Instruments, Inc. (Austin, Tex.). A conventional three-electrode set-up comprising a glassy carbon working electrode, platinum wire auxiliary electrode and an Ag/AgCl (3M KCl) reference electrode was used for electrochemical measurements. The electrochemical data were uncorrected for junction potentials. KCl was used as a supporting electrolyte. Platin-A (2 mM) solutions were prepared in 20% DMF-phosphate buffered saline (PBS) of pH 6.4 and 7.4 with […] and voltammograms were recorded at different scan rates (FIG. 6).

CC(=O)Oc1ccccc1C(=O)[O][Pt]([NH2])([NH2])([OH])([Cl])[Cl] [Platin-A]
COX-2 expression in TNF-α stimulated PC3 cells [1]: levels were reduced
level of IL-10 [2]: enhanced level of IL-10
positive shift of reduction potential ([3]; pH 6.4 compared with pH 7.4): 42 mV
reduction potential ([3]; pH 7.4, vs. normal hydrogen electrode (NHE)): −536 mV
